Experimental data taken from patent publication US8394767B2, “Methods of treating cancer using the calcitonin-gene related peptide (“CGRP”) receptor antagonist CGRP8-37” (University of Rochester, priority 2008, dated 2013).
No end group written: not given here.

Columns and labels:
CNS1 glioma cells [1] = test: Growth of CNS1 glioma cells constitutively expressing L2/EGFP (FACS-purified); format: cell-based, rat; conditions: constitutive expression
From the text: To examine the role of CLR in glioma proliferation, inhibition of CLR via expression of L2/EGFP was attempted. Although CNS1 cells that constitutively express GFP were generated using published techniques (Evans et al., “CGRP-RCP, A Novel Protein Required for Signal Transduction At Calcitonin Gene-Related Peptide and Adrenomedullin Receptors,” J Biol Chem 275(40):31438-43 (2000); Prado et al., “The Role of the CGRP-Receptor Component Protein (RCP) in Adrenomedullin Receptor Signal Transduction,” Peptides 22(11):1773-81 (2001); Rosenblatt et al., “Endoproteolysis At Tetrabasic Amino Acid Sites in Procalcitonin Gene-Related Peptide by Pituitary Cell Lines,” Peptides 18(4):567-76 (1997), which are hereby incorporated by reference in their entirety), upon transfection of the constitutively expressed L2/EGFP construct, pure fluorescent colonies could not be isolated.

CGRP receptor [2] = target: T1, CGRP receptor (Mus musculus, UniProt O35427); test: CGRP receptor signaling (cAMP) in NIH3T3 cells expressing L2/EGFP; format: cell-based; conditions: L2/EGFP expressed in NIH3T3 cells, which endogenously express CGRP receptors
T1 construct: NIH3T3 cells, which endogenously express CGRP receptors; endogenous in cells; host or cells: NIH3T3
From the text: (§1) FIG. 7A is a schematic illustration showing that the second intracellular loop of CLR was cloned as a fusion protein with enhanced green fluorescent protein (EGFP). […] The immunoprecipitate was separated by SDS-PAGE and probed with an antibody directed against RCP. RCP co-immunoprecipitated with the L2/EGFP fusion protein (lanes 5, 6) indicating an interaction between RCP and the second intracellular loop of CLR.
(§2) A fusion protein was constructed containing the second intracellular loop (“L2” or elsewhere designated “cpd2”) of CLR and the enhanced green fluorescent protein (L2/EGFP) (FIG. 7A). RCP co-immunoprecipitated with the L2/EGFP fusion protein, indicating a direct interaction between the two proteins (FIG. 7B). […] This confirmed the belief that over-expression of L2/EGFP pulls most of the available RCP away from the CGRP receptor complex, and that the CLR/RAMP1 complex is unable to signal. Thus, the site of interaction between the second intracellular loop of CLR and RCP represents a novel control site for signaling at CLR, and represents a candidate for development of anti-proliferative drugs to combat tumor growth.

RCP = target: T2, RCP (Mus musculus, UniProt O35427); test: Co-immunoprecipitation of RCP with L2/EGFP in NIH3T3 cells; format: binding; conditions: L2/EGFP transfected into NIH3T3 cells, GFP immunoprecipitation, probed with anti-RCP
T2 construct: endogenous in cells; host or cells: NIH3T3
From the text: as §1, §2

[3] = test system: breast cancer lines (human MDA-MB-231 and MDA-MB-231 BR, mouse 4T1 and TG1); test: Growth of breast cancer lines constitutively expressing L2/EGFP (FACS-purified); format: cell-based; conditions: constitutive promoter
From the text: To determine if the dominant-negative L2/EGFP fusion protein could inhibit CLR function in breast cancer cells, four breast cancer lines (human MDA-MB-231 and MDA-MB-231 BR lines and mouse 4T1 and TG1 lines) were transfected with L2/EGFP or GFP alone. MDA-MB231 and MDA-MB-231BR cells that constitutively express GFP were generated as previously described (Evans et al., “CGRP-RCP, a Novel Protein Required for Signal Transduction at Calcitonin Gene-Related Peptide and Adrenomedullin Receptors,” J Biol Chem 275(40):31438-43 (2000); Prado et al., “The Role of the CGRP-Receptor Component Protein (RCP) in Adrenomedullin Receptor Signal Transduction,” Peptides 22(11):1773-81 (2001); and Rosenblatt et al., “Endoproteolysis at Tetrabasic Amino Acid Sites in Procalcitonin Gene-Related Peptide by Pituitary Cell Lines” Peptides 18(4):567-76 (1997), which are hereby incorporated by reference in their entirety). However, when a constitutive promoter was used to express L2/EGFP in these tumor cells, pure fluorescent colonies could not be isolated because, it is believed, the constitutive expression of L2/EGFP was too effective at inhibiting tumor growth.

FL-CGRP = target: T3, FL-CGRP (Rattus norvegicus, UniProt P01256); test: Immunoprecipitation of FL-CGRP by anti-CGRP antibodies; format: binding; conditions: saturating unlabeled CGRP
T3 sequence (P01256 83-119 limits assumed): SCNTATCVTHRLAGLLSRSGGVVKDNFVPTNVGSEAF
From the text: FIGS. 10A-B illustrate the immunoprecipitation of FL-CGRP using anti-CGRP antibodies JH84 and MU33. FIG. 10B schematically illustrates the binding sites of these antibodies.
To be useful for development of non-radioactive competition assays, which will be useful for quantifying CGRP in tissues and cells, the FL-label at lysine^24 cannot inhibit anti-CGRP antibody binding. […] The binding sites for JH84 and MU33 on CGRP are illustrated schematically in FIG. 10B.

CNS1 glioma cells [4] = test: CNS1 glioma tumor cell proliferation assay (CyQuant Direct Proliferation Assay); format: cell-based, rat; conditions: for stimulation of glioma growth over control: hypoxic conditions
Protocol: (§3) FIGS. 3A-B are graphs illustrating that CGRP is a potent stimulator of CNS1 glioma cell growth. CNS1 cells were seeded in 96-well plates, and grown for the indicated time in either normoxic (3A) or hypoxic (34B) conditions. Media was replaced every 24 hrs with fresh peptide-containing media. On each day, cell number was determined using the CyQuant Direct Proliferation Assay (Invitrogen).
The rat glioma cell line CNS1 was used in a tumor cell proliferation assay. Both AM and CGRP were tested for their ability to stimulate glioma growth. […] More striking was the effect under hypoxic conditions, where CGRP stimulated glioma growth 72-fold over control after 4 days in culture and 10-fold after 5 days in culture (FIG. 3B).

anti-CGRP antibody JH84 = test: Fluorescent competition assay with FL-CGRP tracer on immobilized antibody; format: binding; conditions: JH84 bound to 96-well plate, 100 pM FL-CGRP as tracer
Protocol: FIG. 11 is a graph illustrating that FL-CGRP can be used for a competition assay to determine CGRP concentrations. Affinity-purified JH84 antibody (100 ng/well) was linked to wells in a 96-well plate, and incubated with 100 pM FL-CGRP and increasing concentrations of unlabeled CGRP. Unbound peptide was washed from well, and fluorescence detected in a Perkin Elmer plate reader.
FL-CGRP was then used to develop a fluorescent competition assay. Affinity-purified anti-CGRP antibody JH84 was bound to the wells of a 96-well plate and […] FL-CGRP was incubated as tracer with either unlabeled CGRP, the homologous neuropeptide adrenomedullin (AM), or the CGRP antagonist CGRP(8-37). […] Thus, the antagonist could not totally compete with FL-CGRP for binding to the antibodies.

[5] = test system: MDA-MB-231BR breast cancer cells; test: MDA-MB-231BR breast cancer cell growth assay (CyQuant Direct Proliferation Assay); format: cell-based, human; conditions: normoxic conditions, after 4 days in culture
Protocol: as §3, with “4A-B” for “3A-B”, “MDA-MB231BR breast cancer” for “CNS1 glioma”, “MDA-MB231BR” for “CNS1”, “(4A)” for “(3A)”, “(4B)” for “(34B)”
A similar role for CGRP in the stimulation of breast cancer cell growth was observed using the MDA-MB-231BR breast cancer cell line. […] 81:39-48 (2007); Oxmann et al., “Endoglin Expression in Metastatic Breast Cancer Cells Enhances Their Invasive Phenotype,” Oncogene 27:3567-3575 (2008), each of which is herbey incorporated by reference in its entirety). In this assay, CGRP induced the MDA-MB-231BR breast cancer cells 6-fold over control after 4 days in culture under normoxic conditions (FIGS. 4A-B).

CGRP receptor [6] = conditions: oocyte-CFTR assay, Luebke et al. 1996; cited from earlier work
[7] = test system: CGRP receptors (CLR-cherry and RAMP1); test: FL-CGRP binding to COS1 cells transfected with CLR-cherry and RAMP1 (fluorescence microscopy)
Protocol: FIG. 12 is a panel of microscopy images illustrating that FL-CGRP specifically binds to cells expressing CLR and RAMP1. COS1 cells were transfected with CLR-cherry and RAMP1. 30 nM FL-CGRP was incubated with transfected cells for 30 minutes, and cells were washed 2× with PBS and visualized by phase-contrast microscopy (left panel), and fluorescent microscopy to identify cells expressing the CLR-cherry fusion protein (center panel) and cells that bound FL-CGRP (right panel).
COS1 cells were transfected with a fusion protein containing CLR-fused at its carboxyl terminus to the fluorescent protein cherry. CLR-cherry and RAMP1 were co-transfected into COS1 cells, and 48 hours post-transfection cells were incubated with FL-CGRP, and imaged using phase contrast microscopy (FIG. 12, left panel) as well as fluorescence microscopy for cherry (580 nm) (FIG. 12, center panel) and FL-CGRP (488 nm) (FIG. 12, right panel).

[8] = test system: rodent receptors over human receptors; conditions: cited from earlier work

T2 sequence (O35427 whole entry): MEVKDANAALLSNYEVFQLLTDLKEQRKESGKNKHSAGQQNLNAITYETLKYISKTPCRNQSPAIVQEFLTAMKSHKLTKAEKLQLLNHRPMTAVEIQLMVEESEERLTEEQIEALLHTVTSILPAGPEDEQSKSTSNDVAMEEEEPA
T1 sequence (O35427 whole entry): as above

With “L2/EGFP: fusion protein of the second intracellular loop of CLR and enhanced green fluorescent protein; dominant-negative inhibitor of CLR signaling (LIVVAVFAEKQHLMWYYFLGWGFPLIPACIH; also: fusion protein with EGFP)” the “growth of pure populations of cells expressing the dominant-negative inhibitor” value (CNS1 glioma cells [1]) was “would not grow”, the “signaling at the CGRP receptor as measured by cAMP” value (CGRP receptor [2]) was “inhibited signaling at the CGRP receptor” and the “co-immunoprecipitation with RCP” value (RCP) was “co-immunoprecipitated”. The “growth of pure populations of cells expressing the dominant-negative inhibitor” value [3] was “would not grow”.

With “CGRP: 37 amino acid neuropeptide derived from calcitonin-related polypeptide alpha; agonist of the CGRP receptor” the “effect on immunoprecipitation of FL-CGRP by JH84 and MU33” value (FL-CGRP) was “blocked”, the “stimulation of glioma growth over control” value (CNS1 glioma cells [4]; after 4 days in culture) was 72 fold and the “stimulation of glioma growth over control” value (CNS1 glioma cells [4]; after 5 days in culture) was 10 fold. For the same molecule, the “increase of CNS1 cell growth over control” value (CNS1 glioma cells [4]; normoxic conditions, after 5 days in culture) was 11 fold, the “competition with FL-CGRP for binding to immobilized antibody” value (from here on “competition with FL-CGRP for binding”) (anti-CGRP antibody JH84) was “effectively competed” and the “induction of MDA-MB-231BR breast cancer cells over control” value [5] was 6 fold.

In the case of “SEQ ID NO:9: antisense DNA oligonucleotide TGCTCACTGTGTAAGCCTTAAATCCATCAAG (DNA, backbone not given here)”, the CGRP receptor function (CGRP receptor [6]) is listed as “inhibit CGRP receptor function”.

With “CGRP8-37: peptide CGRP antagonist consisting of residues 8-37 of SEQ ID NO: 2” the “competition with FL-CGRP for binding” value (anti-CGRP antibody JH84) was “partially competed”.

For “AM: the homologous neuropeptide adrenomedullin”, the “competition with FL-CGRP for binding” value (anti-CGRP antibody JH84) was “did not compete”.

In the case of “FL-CGRP: rat CGRP with a single Alexa488 dye molecule attached to the lysine24 residue”, the “binding to CGRP receptors” value [7] is reported as “high-affinity”, the “FL-CGRP binding to cells” value ([7]; COS1 cells co-transfected with CLR-cherry and RAMP1, 48 hours post-transfection, 30 nM FL-CGRP) is reported as “only observed to bind to cells that were expressing CLR-cherry” and the “FL-CGRP binding to cells” value ([7]; untransfected cells) is reported as “No FL-CGRP binding was detected”.

For `NCCCC[C@H](NC(=O)[C@@H](Cc1cc(Br)c(O)c(Br)c1)NC(=O)N1CCC(N2Cc3ccccc3NC2=O)CC1)C(=O)N1CCN(c2ccncc2)CC1` [BIB4096, N-((1R)-2-(((1S)-5-amino-1-((4-(pyridin-4-yl)piperazin-1-yl)carbonyl)pentyl)amino)-1-(3,5-dibromo-4-hydroxybenzyl)-2-oxoethyl)-4-(2-oxo-1,4-dihydroquinazolin-3(2H)-yl)piperidine-1-carboxamide], the “lower affinity for rodent receptors over human receptors” value [8] is given as 100-1000 ×.
